Read-outs that look alike come from different tables or passages of the source.
Experiments:
[1] = target: T1, human CB1R (Homo sapiens, UniProt P21554); experiment: Radioligand competition displacement binding, [3H]CP-55,940, membranes with human CB1R
T1 construct: purchased PerkinElmer RBHCB1M400UA
Description: BNS compounds’ binding to CB1R and CB2R was assessed in competition displacement assays using [^3H]CP-55,940 as the radioligand and crude membranes from mouse brain or human cells overexpressing the CB1R or CB2R. All data were in triplicates with Ki values determined from three independent experiments. See SI for a detailed procedure. […]
(§1) Radioligand binding assays were performed to asse ss the binding affinity of the different compounds to hCB1R (RBHCB1M4 00UA; Per kinElmer) or hCB 2R
(§2) (RBXCB2 M400UA; PerkinElmer). Competition displacement as says w ere employed, […]
(§3) utilizing [3H] C P -55,940 as the radioligand and crude membranes from humans for CB1 R or CB2 R. T he compounds were tested at various concentrations (eight points with a five-fold serial dilution starting at two m M) , and their ability to displace [3H] CP - 55, 940 was evaluated. Upon completion of the binding assays, the reaction mixture was filtered through GF/C plates, followed by four washes with cold wash buffer. After drying for one hour, 50 μL of Perkin Elmer Microscint 20 cocktail was added to the filter plate wells, and the bound [3H] C P -55,940 radioligand was measured using a β counter. All data points were duplicated, and Ki values were determined from two independent experiments using GraphPad Prism 7.02 analysis software, extracted through nonlinear regression analysis. […]

[2] = system: HepG2 cells; experiment: Cell viability assay (CellTiter Glo); format: cell-based; conditions: 72 h; for IC50: Homo sapiens
Description: Cell viability assay. To assess the cell viability, which indicates the toxicity of the novel compounds, a total of 3,000 HepG2 cells were seeded into a 384-well plate. The compounds were then dispensed onto the cell plate using a Tecan D300e digital dispenser. Following compound addition, 35 μL CellTiter Glo reagent was added to all wells of the assay plate, and the plate was mixed for 30 sec on an or bital shaker to lyse cells. Subsequently, the plate was incubated at room temperature for 10 minutes. The luminescence signal was measured using a 384-well plate reader (EnVision). The obtained data were analyzed using XL-fit software (ID Business Solutions Ltd., Software version: XL fit 5. 5. 0. 5). The percentage of inhibition was calculated using the […]
Inhibition (%) = (1-Sample / ZPE) ×100
Sample represents the test compound's luminesc e nce signal, and ZPE represents the luminescence signal f r om the zer o-percent enzyme control.

[3] = target: T2, human CB2R (Homo sapiens, UniProt P34972); experiment: Radioligand competition displacement binding, [3H]CP-55,940, membranes with human CB2R; conditions: [3H]CP-55,940 displacement, read-out: CB2R hKi
T2 construct: purchased PerkinElmer; Charles River RBXCB2M400UA; A618
T2 sequence (P34972 whole entry): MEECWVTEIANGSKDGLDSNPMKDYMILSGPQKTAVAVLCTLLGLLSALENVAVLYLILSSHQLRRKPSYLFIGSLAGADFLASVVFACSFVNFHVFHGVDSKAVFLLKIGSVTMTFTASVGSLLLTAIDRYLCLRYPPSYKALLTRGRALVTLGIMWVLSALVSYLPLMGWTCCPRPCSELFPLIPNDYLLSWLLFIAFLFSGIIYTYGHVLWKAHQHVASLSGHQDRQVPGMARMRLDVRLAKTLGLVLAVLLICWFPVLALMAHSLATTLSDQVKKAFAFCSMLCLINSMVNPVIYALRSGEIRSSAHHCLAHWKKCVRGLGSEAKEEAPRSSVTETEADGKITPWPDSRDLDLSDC
Description: BNS compounds’ binding to CB1R and CB2R was assessed in competition displacement assays using [^3H]CP-55,940 as the radioligand and crude membranes from mouse brain or human cells overexpressing the CB1R or CB2R. All data were in triplicates with Ki values determined from three independent experiments. See SI for a detailed procedure.
Supplementary Experimental Methods […]
CB1R and CB2R binding. Binding to the CB1R/CB2R was asse ss ed using competition displacement as says with [ 3H] CP -55,940 as the radioligand. Purified membranes from the mouse brain were utilized for CB1R assessment (as described above). Purified […]
membranes from cells overexpressing human CB2R ( Char les River CAT # A618) w e r e employed for CB2R evaluation. […]
as §1, §2, §3
MgCl 2. The tissue was homogenized using a glass -Teflon and Hei-T ORQUE 200 homogenizer (Heidolph; Cat#17- 012- 002- 25 -1) set to 132 rpm. The resulting suspen sion underwent centrifugation at 48,000 × g for 20 min at four °C, and the supernatant was discarded. The pellet obtained was homogenized again and subjected to a second centrifugation under the same conditions. Subsequently, the resulting pellet […]
mM EGTA, 9 mM MgCl 2, and 150 mM NaCl, followed by homogenization. The protein concentration of the suspension was determined using the BCA assay, and the suspen sion was diluted to a final concentration of 2 mg/mL in assay buffer. The prepared suspension was aliquoted on ice and stored at - 80 °C for further use.

[4] = human CB1R, read-out: CB1R hIC50
[5] = read-out: cell viability Absolute IC50
[6] = read-out: cell viability relative IC50

T1 sequence (P21554 whole entry): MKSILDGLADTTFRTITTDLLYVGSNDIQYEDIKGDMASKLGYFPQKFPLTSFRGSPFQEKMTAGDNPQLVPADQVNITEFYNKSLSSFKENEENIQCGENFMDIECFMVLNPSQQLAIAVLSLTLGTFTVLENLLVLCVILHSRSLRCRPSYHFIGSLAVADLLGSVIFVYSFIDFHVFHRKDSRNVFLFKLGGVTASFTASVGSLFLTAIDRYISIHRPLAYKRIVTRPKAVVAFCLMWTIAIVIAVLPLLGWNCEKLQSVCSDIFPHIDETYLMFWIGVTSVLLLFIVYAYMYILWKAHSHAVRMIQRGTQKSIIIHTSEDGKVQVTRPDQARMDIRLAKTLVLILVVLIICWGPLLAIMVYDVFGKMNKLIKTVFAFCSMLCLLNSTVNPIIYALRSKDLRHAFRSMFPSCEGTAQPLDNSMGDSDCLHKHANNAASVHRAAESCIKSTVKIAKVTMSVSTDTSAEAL

Compound | IC50 [1, 4] [µM] | Bottom (%) of cell viability inhibition curve [2] [%] | Slope of cell viability inhibition curve [2] | Top (%) of cell viability inhibition curve [2] [%] | IC50 [2, 5] [µM] | IC50 [2, 6] [µM] | Ki [3] [µM] | IC50 [1] [µM] | Ki ([1]; [3H]CP-55,940 displacement, human CB1R membranes, read-out: CB1R hKi) [µM]
Cc1ccc(S(=O)(=O)NC2CCCOc3c2nn(-c2ccccc2Cl)c3-c2ccc(Cl)cc2)cc1 (stereo not shown) [BNS807] | 0.0015 | -12.17 | 1.52 | 21.39 | > 100 | 17.9 | 1.65 | – | –
O=S(=O)(NC1CCCOc2c1nn(-c1ccccc1Cl)c2-c1ccc(Cl)cc1)c1ccc(Cl)cc1 (stereo not shown) [BNS808, 4-chloro-N-[2-(2-chlorophenyl)-3-(4-chlorophenyl)-5,6,7,8-tetrahydrooxepino[3,2-c]pyrazol-8-yl]benzenesulfonamide] | – | -8.11 | 3.39 | 62.98 | 26.2 | 16.8 | 1.93 | 0.0008 | –
CS(=O)(=O)N1CCC(C(=O)NC2CCCOc3c2nn(-c2ccccc2Cl)c3-c2ccc(Cl)cc2)CC1 (stereo not shown) [BNS815, N-[2-(2-Chlorophenyl)-3-(4-chlorophenyl)-5,6,7,8-tetrahydrooxepino[3,2-c]pyrazol-8-yl]-1-methylsulfonyl-piperidine-4-carboxamide] | 0.0101 | -9.25 | 3.71 | 80.41 | 55.9 | 46.7 | 6.31 | – | 0.00909

Reference: PMC12067444, “Synthesis and Pharmacological Characterization of Novel Peripheral Cannabinoid-1 Receptor Blockers Based on a Tricyclic Scaffold” (Journal of Medicinal Chemistry, 2025)
